Data set [1] can be described thus: Cytotoxicity (IC50) on Balb/3T3. In kind it is cell-based. The note with it: mouse, Balb/3T3 cells. On the procedure: (§1) Human tumor cell lines (MCF-7, CL1-5, HT-29, Caco-2), human umbilical vascular endothelial cells (HUVEC), and human dermal fibroblasts (HDF) were tested for sensitivity on Angelicae sinensis extracts, ligustilide, n-butylidenephthalide and its derivatives in vitro. The DBTRG-05MG, BCM, HL-60 and J5 cells were grown in RPMI-1640 medium containing 10% fetal calf serum and 100 ng/ml penicillin and […] streptomycin at 37° C. in a humidified atmosphere with 5% CO2. The G5T/VGH, RG2, Ni 8, SVEC and Balb/3T3 cells were cultured in DMEM with 10% fetal calf serum and 100 ng/ml penicillin and […] streptomycin at 37° C. in 5% CO2. Mycoplasma infection of the culture cells was excluded by PCR screening methods before each experiment.
(§2) The effects on cell viability after the treatments with different concentrations of the Angelicae sinensis extracts or the active components purified therefrom were evaluated by modified MTT assay in triplicate. Briefly, the cells (5×10^3) were incubated into 96-well plates containing 100 μl of a growth medium. The cells were permitted to adhere for 24 hours, then treated with 100 μl of the herbal extracts or the active components dissolved in the medium. The control contained DMSO of <0.02% (v/v). […] Absorbance at 550 nm of the solutions was measured with MRX Microtiter Plate Luminometer (DYNEX, USA). The absorbance of untreated cells was considered as 100%. […]

The subject of the next data set is HCT15. Kind of data set: Cytotoxicity (IC50) on HCT15. The conditions noted are these: Homo sapiens, HCT-15. In kind it is cell-based. The method, then: (§3) The effects on cell viability after the treatments with different concentrations of the Angelicae sinensis extracts or the active components purified therefrom were evaluated by modified MTT assay in triplicate. Briefly, the cells (5×10^3) were incubated into 96-well plates containing 100 μl of a growth medium. The cells were permitted to adhere for 24 hours, then treated with 100 μl of the herbal extracts or the active components dissolved in the medium. The control contained DMSO of <0.02% (v/v). After 24, 48 and 72 h incubation, the drug-containing medium was replaced by 50 μl of fresh medium, and cells in each well were incubated in 50 μl of 400 μg/ml MTT for 6-8 h. The medium and MTT were removed later and 100 μl of DMSO was added to each well and to the control, to dissolve the soluble components. Absorbance at 550 nm of the solutions was measured with MRX Microtiter Plate Luminometer (DYNEX, USA). The absorbance of untreated cells was considered as 100%. To evaluate the effects of the extracts or the active components on cell growth rate of GBM cells, 5×10^3 exponentially growing cells were treated with different concentrations for 24, 48, or 72 h. The cytotoxicity of each test substance was determined as an IC50 value, which represents the drug concentration required to cause 50% inhibition. All experiments in this study were performed in triplicate.

Data set [2] is described as follows: Cytotoxicity (IC50) on HDF. The note with it: human, human dermal fibroblasts (HDF), normal cells; Table 1, value in parentheses. The data set is classed as cell-based, human.
From the text: (§4) Human umbilical vascular endothelial cells (HUVECs) were purchased from Cascade Biologics, Inc. (USA). HUVECs were maintained in Medium 200 (Cascade Biologics, Inc. USA) supplemented with 10% fetal bovine serum (FBS; Gibco BRL) and low serum growth supplement (LSGS; Cascade Biologics, Inc. USA). Human dermal fibroblasts (HDFs) were purchased from Cascade Biologics, Inc. (USA). HDFs were maintained in Medium 106 (Cascade Biologics, Inc. USA) supplemented with 10% FBS and low serum growth supplement (LSGS; Cascade Biologics, Inc. USA). The human colon adenocarcinoma cell lines HT-29 were purchased from the ATCC (Manassas, Va. USA). HT-29 were maintained in Dubecco's Modified Eagle Medium (DMEM; Gibco) supplemented with 10% FBS and 100 ng/ml penicillin and […] streptomycin (Life Technologies, Inc., Grand Island, N.Y., USA). For the proliferation assay of cell in log growth (G1), the cells were harvested at 60-80% of confluence. 100 μl of cell suspensions were dispensed onto a Falcon 96-well plates The densities were 6×10^3 cells/well in Medium 200 (for HUVECs), and 9×10^3 cells/well in Medium 106 (for HDFs), and 5×10^3 cells/well in DMEM (for HT-29) supplemented with 10% FBS. The cells were pre-incubated for 24 hours in an incubator (Humidified atmosphere, e.g., at 37° C., 5% CO2). 10 μl of toxicant of various concentrations were added into the culture medium of the plate. The cell cultures were incubated for 48 hours. 10 μl of the Cell Counting Kit-8 (CCK-8; DOJINDO) solution were added and the cell cultures incubated for 1˜4 hours in the incubator. The absorbance was measured at 450 nm, using a microplate reader with a reference wavelength at 600 nm or over.
as §1
as §3, with “To evaluate the effects of the extracts or the active components on cell growth rate of GBM cells, 5×10^3 exponentially growing cells were treated with different concentrations for 24, 48, or 72 h. The cytotoxicity of each test substance was determined as an IC50 value, which represents the drug concentration required to cause 50% inhibition. All experiments in this study were performed in triplicate.” left out

The subject of a further data set is HUVEC. Kind of data set: Tube formation of HUVEC. In kind it is cell-based, human.
The test system of the next data set is MMP-2. The data set is described as follows: RT-PCR of MMP-2 in HUVEC. The data set is classed as cell-based, human.
The next data set concerns CL1-5. The data set is described as follows: Cytotoxicity (IC50) on CL1-5. The conditions noted are these: Homo sapiens. In kind it is cell-based. On the procedure: as §1, §2
Another data set concerns Caco-2. The data set is described as follows: Cytotoxicity (IC50) on Caco-2. The data set is classed as cell-based. The note with it: Homo sapiens. On the procedure: as §1, §2
The next data set concerns A549. The data set is described as follows: Cytotoxicity (IC50) on A549. In kind it is cell-based. The conditions noted are these: Homo sapiens. The method, then:
as §3

The next data set deals with AT12. The data set is described as follows: Cytotoxicity (IC50) on AT12. In kind it is cell-based. The note with it: Homo sapiens, read-out: Cytotoxicity (IC50) AT12. On the procedure: as §3
Data set [3] can be described thus: Cytotoxicity (IC50) on HUVEC. In kind it is cell-based, human. The note with it: human, human umbilical vascular endothelial cells (HUVEC), normal cells, read-out: Cytotoxicity, IC50 HUVEC.
From the text: as §4, §1, §3

Broadly, the IC50 is the concentration at which inhibition is half-maximal.

Values joined by “and” are separate entries in the source; they are usually repeats but may differ in a detail not shown here. Equal values may be shown once. Read-outs that look alike come from different tables or passages of the source. Bounds are passed on as bounds.

Take `CCCC=C1OC(=O)c2ccccc21` [BP, n-Butylidenephthalide]: the IC50 in data set [1] (Table 2) is over 300 µg/mL; in data set [1] (Table 2, value in parentheses) it was over 1600 µM; with HCT15 (Table 2), 25 to 30 µg/mL; in the data set on HCT15 (Table 2, value in parentheses), 133 to 160 µM; in data set [2], 1600 µM; in the data set with CL1-5 (Table 2) it was over 100 µg/mL. Further, the IC50 in the data set on CL1-5 (Table 2, value in parentheses) is over 532 µM; with Caco-2 (Table 1, value in parentheses), over 106 µM; in the data set with Caco-2 (cancer cells, Table 1) it was over 20 µg/mL; in the data set on A549 (Table 2), 8 to 12 µg/mL; with A549 (Table 2, value in parentheses), 42.6 to 63.8 µM; in the data set with AT12 it was 10 µg/mL to 15 µg/mL and 53.2 µM to 79.8 µM. Also, the IC50 was over 532 µM in data set [3] (Table 1, value in parentheses) and over 100 µg/mL in data set [3] (Table 1). The “Inhibition Tube Formation” value with HUVEC is 531.3 µg/mL; in the data set with HUVEC (value in parentheses) it was “(2826 μM)”. Moreover, the “Inhibition RT-PCR MMP-2” value in the data set on MMP-2 is 159.4 µg/mL; in the data set on MMP-2 (value in parentheses) it was “(847.9 μM)”.

The record behind these values is patent publication US7455861B2, “Angelicae sinensis extracts useful for treatment of cancers” (priority 2004, dated 2008).
